Measured values published in PubChem BioAssay AID1963971 (Molecular Pharmacology Branch, DTP, NCI, 2024).
pIC50: −log10 of the molar value. Where “and” joins values, the source holds several entries; their conditions need not be identical. Equal values may be shown once.

System: 953936-095-R-J2-PDC spheroids with HUVEC/MSC, viability
Assay: Anticancer human tumor 953936-095-R-J2-PDC patient-derived cervical squamous cell carcinoma cell line growth inhibition [PI3K]
Conditions: for pIC50: curve of first compound; for viability, T/C: stronger effect = lower value
Method in brief: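 High-throughput combination screen: PI3K inhibitors crossed with targeted small molecules on complex spheroids of tumor cells, HUVEC and MSCs at 37 degrees C, 5% CO2. Top concentration was at or near clinical Cmax (otherwise 10 microM), with half-log decrements.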

[1] = second compound 0.0316 µM, first compound 0.0316 µM
[2] = second compound 0.0316 µM, first compound 0.1 µM
[3] = second compound 0.0316 µM, first compound 0.316 µM
[4] = second compound 0.0316 µM, first compound 1 µM
[5] = second compound 0.0316 µM, first compound 3.16 µM
[6] = second compound 0.0316 µM, first compound 10 µM
[7] = second compound 0.1 µM, first compound 0.0316 µM
[8] = second compound 0.1 µM, first compound 0.1 µM
[9] = second compound 0.1 µM, first compound 0.316 µM
[10] = second compound 0.1 µM, first compound 1 µM
[11] = second compound 0.1 µM, first compound 3.16 µM
[12] = second compound 0.1 µM, first compound 10 µM
[13] = second compound 0.316 µM, first compound 0.0316 µM
[14] = second compound 0.316 µM, first compound 0.1 µM
[15] = second compound 0.316 µM, first compound 0.316 µM
[16] = second compound 0.316 µM, first compound 1 µM
[17] = second compound 0.316 µM, first compound 3.16 µM
[18] = second compound 0.316 µM, first compound 10 µM
[19] = second compound 1 µM, first compound 0.0316 µM
[20] = second compound 1 µM, first compound 0.1 µM
[21] = second compound 1 µM, first compound 0.316 µM
[22] = second compound 1 µM, first compound 1 µM
[23] = second compound 1 µM, first compound 3.16 µM
[24] = second compound 1 µM, first compound 10 µM
[25] = second compound 3.16 µM, first compound 0.0316 µM
[26] = second compound 3.16 µM, first compound 0.1 µM
[27] = second compound 3.16 µM, first compound 0.316 µM
[28] = second compound 3.16 µM, first compound 1 µM
[29] = second compound 3.16 µM, first compound 3.16 µM
[30] = second compound 3.16 µM, first compound 10 µM
[31] = second compound 10 µM, first compound 0.0316 µM
[32] = second compound 10 µM, first compound 0.1 µM
[33] = second compound 10 µM, first compound 0.316 µM
[34] = second compound 10 µM, first compound 1 µM
[35] = second compound 10 µM, first compound 3.16 µM
[36] = second compound 10 µM, first compound 10 µM
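Also: spheroids exposed to compounds for seven days before read-out.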

## CCCS(=O)(=O)Nc1ccc(F)c(C(=O)c2c[nH]c3ncc(-c4ccc(Cl)cc4)cc23)c1F + CC(Nc1ncnc2nc[nH]c12)c1cc2cccc(Cl)c2c(=O)n1-c1ccccc1
Second compound 0.0316 µM
  pIC50: 5.24
Second compound 0.1 µM
  pIC50: 5.24
Second compound 0.316 µM
  pIC50: 5.25
Second compound 1 µM
  pIC50: 5.28
Second compound 3.16 µM
  pIC50: 5.30
Second compound 10 µM
  pIC50: 5.39
[1]
  viability, T/C: 91.3%
[2]
  viability, T/C: 98.6%
[3]
  viability, T/C: 108%
[4]
  viability, T/C: 113%
[5]
  viability, T/C: 103%
[6]
  viability, T/C: 0.75%
[7]
  viability, T/C: 102%
[8]
  viability, T/C: 101%
[9]
  viability, T/C: 99.2%
[10]
  viability, T/C: 104%
[11]
  viability, T/C: 104%
[12]
  viability, T/C: 1.22%
[13]
  viability, T/C: 101%
[14]
  viability, T/C: 91.6%
[15]
  viability, T/C: 97%
[16]
  viability, T/C: 102%
[17]
  viability, T/C: 97.2%
[18]
  viability, T/C: 0.93%
[19]
  viability, T/C: 98.9%
[20]
  viability, T/C: 85.1%
[21]
  viability, T/C: 96.5%
[22]
  viability, T/C: 98.2%
[23]
  viability, T/C: 89.3%
[24]
  viability, T/C: 1.11%
[25]
  viability, T/C: 76.1%
[26]
  viability, T/C: 74.6%
[27]
  viability, T/C: 78%
[28]
  viability, T/C: 101%
[29]
  viability, T/C: 86.9%
[30]
  viability, T/C: 1.48%
[31]
  viability, T/C: 59.5%
[32]
  viability, T/C: 63.5%
[33]
  viability, T/C: 63%
[34]
  viability, T/C: 70.1%
[35]
  viability, T/C: 63.6%
[36]
  viability, T/C: 1.27%

## CC(C)n1nc(-c2ccc3oc(N)nc3c2)c2c(N)ncnc21 + CC(Nc1ccc2c(c1)OCCn1cc(N3C(=O)OCC3C(F)F)nc1-2)C(N)=O
Second compound 0.00316 µM
  pIC50: 7.56
Second compound 0.01 µM
  pIC50: 7.64
Second compound 0.0316 µM
  pIC50: 7.85
Second compound 0.1 µM
  pIC50: 8.85
Second compound 0.316 µM
  pIC50: > 9.50
Second compound 1 µM
  pIC50: > 9.50
Second compound 0.00316 µM, first compound 0.000316 µM
  viability, T/C: 92.9%
Second compound 0.00316 µM, first compound 0.001 µM
  viability, T/C: 93.3%
Second compound 0.00316 µM, first compound 0.00316 µM
  viability, T/C: 81.3%
Second compound 0.00316 µM, first compound 0.01 µM
  viability, T/C: 73.7%
Second compound 0.00316 µM, first compound 0.0316 µM
  viability, T/C: 46.2%
Second compound 0.00316 µM, first compound 0.1 µM
  viability, T/C: 15.5%
Second compound 0.01 µM, first compound 0.000316 µM
  viability, T/C: 87.1%
Second compound 0.01 µM, first compound 0.001 µM
  viability, T/C: 88.8%
Second compound 0.01 µM, first compound 0.00316 µM
  viability, T/C: 79.1%
Second compound 0.01 µM, first compound 0.01 µM
  viability, T/C: 67.6%
Second compound 0.01 µM, first compound 0.0316 µM
  viability, T/C: 43.6%
Second compound 0.01 µM, first compound 0.1 µM
  viability, T/C: 15.2%
Second compound 0.0316 µM, first compound 0.000316 µM
  viability, T/C: 73%
Second compound 0.0316 µM, first compound 0.001 µM
  viability, T/C: 71.9%
Second compound 0.0316 µM, first compound 0.00316 µM
  viability, T/C: 73.4%
Second compound 0.0316 µM, first compound 0.01 µM
  viability, T/C: 53.5%
[1]
  viability, T/C: 35.7%
[2]
  viability, T/C: 12.1%
Second compound 0.1 µM, first compound 0.000316 µM
  viability, T/C: 57.7%
Second compound 0.1 µM, first compound 0.001 µM
  viability, T/C: 52.5%
Second compound 0.1 µM, first compound 0.00316 µM
  viability, T/C: 44.3%
Second compound 0.1 µM, first compound 0.01 µM
  viability, T/C: 34%
[7]
  viability, T/C: 21.6%
[8]
  viability, T/C: 7.99%
Second compound 0.316 µM, first compound 0.000316 µM
  viability, T/C: 34.1%
Second compound 0.316 µM, first compound 0.001 µM
  viability, T/C: 31.2%
Second compound 0.316 µM, first compound 0.00316 µM
  viability, T/C: 28.5%
Second compound 0.316 µM, first compound 0.01 µM
  viability, T/C: 22.7%
[13]
  viability, T/C: 13.1%
[14]
  viability, T/C: 6.47%
Second compound 1 µM, first compound 0.000316 µM
  viability, T/C: 20.8%
Second compound 1 µM, first compound 0.001 µM
  viability, T/C: 21.7%
Second compound 1 µM, first compound 0.00316 µM
  viability, T/C: 18.3%
Second compound 1 µM, first compound 0.01 µM
  viability, T/C: 16.3%
[19]
  viability, T/C: 9.69%
[20]
  viability, T/C: 5.32%

## CC(Nc1ccc2c(c1)OCCn1cc(N3C(=O)OCC3C(F)F)nc1-2)C(N)=O (stereo not given)
Compound 0.00316 µM
  viability, T/C: 104% [middle of 8 runs]
Compound 0.01 µM
  viability, T/C: 92.8% [middle of 8 runs]
Compound 0.0316 µM
  viability, T/C: 75.9% [middle of 8 runs]
Compound 0.1 µM
  viability, T/C: 56.1% [middle of 8 runs]
Compound 0.316 µM
  viability, T/C: 36.3% [middle of 8 runs]
Compound 1 µM
  viability, T/C: 23.6% [middle of 8 runs]
Compound alone, run of 06/12/2023
  IC50: 140 nM [middle of 7 runs]

## Cn1cnc2c(F)c(Nc3ccc(Br)cc3Cl)c(C(=O)NOCCO)cc21
Compound 0.00949 µM
  viability, T/C: 90.5% (2×) and 83.8% and 88.8%
Compound 0.03 µM
  viability, T/C: 81.4% [middle of 4 runs]
Compound 0.0949 µM
  viability, T/C: 72.3% [middle of 4 runs]
Compound 0.3 µM
  viability, T/C: 66% [middle of 4 runs]
Compound 0.949 µM
  viability, T/C: 54.8% [middle of 4 runs]
Compound 3 µM
  viability, T/C: 37.9% [middle of 4 runs]
Curve of compound
  IC50: 1.01 µM [middle of 4 runs]

## CC(Cn1ccc(-c2ccc(C#N)c(Cl)c2)n1)NC(=O)c1cc(C(C)O)[nH]n1 (stereo not given) + CC(Nc1ncnc2nc[nH]c12)c1cc2cccc(Cl)c2c(=O)n1-c1ccccc1
Second compound 0.0316 µM
  pIC50: < 5.00
Second compound 0.1 µM
  pIC50: < 5.00
Second compound 0.316 µM
  pIC50: < 5.00
Second compound 1 µM
  pIC50: < 5.00
Second compound 3.16 µM
  pIC50: < 5.00
Second compound 10 µM
  pIC50: < 5.00
[1]
  viability, T/C: 97.5%
[2]
  viability, T/C: 100%
[3]
  viability, T/C: 101%
[4]
  viability, T/C: 91.1%
[5]
  viability, T/C: 108%
[6]
  viability, T/C: 96%
[7]
  viability, T/C: 98.4%
[8]
  viability, T/C: 106%
[9]
  viability, T/C: 93.6%
[10]
  viability, T/C: 109%
[11]
  viability, T/C: 101%
[12]
  viability, T/C: 93.5%
[13]
  viability, T/C: 107%
[14]
  viability, T/C: 85.7%
[15]
  viability, T/C: 90.8%
[16]
  viability, T/C: 88.6%
[17]
  viability, T/C: 92.8%
[18]
  viability, T/C: 93.4%
[19]
  viability, T/C: 98.2%
[20]
  viability, T/C: 91.7%
[21]
  viability, T/C: 91.7%
[22]
  viability, T/C: 94.4%
[23]
  viability, T/C: 97.7%
[24]
  viability, T/C: 90.1%
[25]
  viability, T/C: 83.7%
[26]
  viability, T/C: 73.6%
[27]
  viability, T/C: 72.2%
[28]
  viability, T/C: 75.9%
[29]
  viability, T/C: 79.9%
[30]
  viability, T/C: 70.7%
[31]
  viability, T/C: 55.7%
[32]
  viability, T/C: 56%
[33]
  viability, T/C: 62.8%
[34]
  viability, T/C: 60.5%
[35]
  viability, T/C: 59.3%
[36]
  viability, T/C: 58.8%
